From US12479816B2, “20-HETE formation inhibitors” (UNIVERSITY OF PITTSBURGH—OF THE COMMONWEALTH SYSTEM OF …, priority 2019, dated 2025) come the findings set out here.

Data set [1] deals with 20-HETE formation (CYP4) in RLM. The data set is described as follows: IC50 determination, 20-HETE formation in RLM. Type of data set: biochemical, rat. Conditions: RLM 300 μg/ml, AA 100 μM, 12 concentrations. As for the experimental part:
Microsomal incubations contained HLM, RLM (300 μg/ml), AA (100 μM), NADPH (1 mM) and test compounds at 12 concentrations (0.1 nM-50 μM) in a 1 ml total volume in microsomal incubation buffer (0.12 M potassium phosphate buffer containing 5 mM magnesium chloride). Reaction was started by adding NADPH to the incubates and was carried out at 37° C. in a shaking water bath for 20 min. Reaction was stopped by placing tubes on ice, followed by adding 12.5 μl 20-HETE-d6 as internal standard to each sample. Microsomal incubations were extracted with 3 ml ethyl ether twice, dried down under nitrogen gas and reconstituted in 125 μl 80:20 methanol:deionized H2O for analysis. 20-HETE formation was quantified using the validated UPLC-MS/MS assay described above and normalized by vehicle group. HET0016 (250 nM) was used as positive control. Incubates without NADPH group served as the negative control. IC50 was determined by fitting the dose-response curve using Graphpad Prism nonlinear regression.

Data set [2] deals with 20-HETE formation (CYP4) in HLM. The data set can be described thus: Inhibition of 20-HETE formation at 250 or 500 nM in HLM microsomal incubations. It is filed as biochemical, human. Conditions: 500 nM compound; HLM 300 μg/ml, AA 100 μM, 20 min. The method in brief: (§1)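 Liver or kidney microsomes (300 μg/ml) or rCYP4F2 (25 pmol/mL) were incubated with 100 μM arachidonic acid, 1 mM NADPH and compound at 250 or 500 nM in 0.12 M potassium phosphate/5 mM MgCl2 for 20 min at 37 °C. 20-HETE was measured by UPLC-MS/MS against 20-HETE-d6 and expressed as % of vehicle (n=3).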

Data set [3] has the same test system. The data set is described as follows: IC50 determination, 20-HETE formation in HLM. Type of data set: biochemical, human. Conditions: HLM 300 μg/ml, AA 100 μM, 12 concentrations. An outline of the steps: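 Human or rat liver microsomes (300 μg/ml) with arachidonic acid 100 μM, NADPH 1 mM, compound at 12 concentrations (0.1 nM-50 μM) in phosphate/MgCl2 buffer, 20 min at 37 °C. 20-HETE quantified by UPLC-MS/MS against d6 internal standard, normalised to vehicle; IC50 by nonlinear regression.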

For data set [4], the system named is 20-HETE formation (CYP4) in RKM. The data set is described as follows: Inhibition of 20-HETE formation at 250 or 500 nM in RKM microsomal incubations. Type of data set: biochemical, rat. Conditions: 500 nM compound; RKM 300 μg/ml. The method in brief: as §1
The test system of data set [5] is 20-HETE formation (CYP4) in RLM. The data set can be described thus: Inhibition of 20-HETE formation at 250 or 500 nM in RLM microsomal incubations. It is filed as biochemical, rat. Conditions: 500 nM compound; RLM 300 μg/ml. The method in brief: as §1
Data set [6] can be described thus: HLM stability determination. It is filed as in vitro ADME, human. Conditions: HLM 500 μg/ml, 1 μM compound, NADPH, relative to 0 min. As to the method:
HLM stability determinations shown in Table 3 were obtained as follows. Microsomal incubates contained HLM (500 μg/ml), test compounds (1 μM) and NADPH (1.3 mM) in a 1 ml total volume of microsomal incubation buffer (0.12 M potassium phosphate buffer containing 5 mM magnesium chloride). Reaction was started by adding NADPH to the incubates and was carried out at 37° C. in a shaking water bath for 60 min. At 0, 15, 30, 45, 60 min, a 50 μl aliquot of incubates was taken out and reaction was stopped by adding aliquot into 200 μl ice-cold acetonitrile. After centrifugation at 14000×g for 5 min, 200 μl supernatant was taken out for UPLC-MS/MS analysis as described above. Values at 0 min were used as corresponding control for test compounds. Varapamil, metoprolol, and warfarin, categorized as fast, moderate and slow metabolism, were used as positive control. Incubates without NADPH group served as negative control.

Data set [7] has as its target T1, rCYP4F2 (Homo sapiens, UniProt P78329).
T1 sequence (P78329 5-520): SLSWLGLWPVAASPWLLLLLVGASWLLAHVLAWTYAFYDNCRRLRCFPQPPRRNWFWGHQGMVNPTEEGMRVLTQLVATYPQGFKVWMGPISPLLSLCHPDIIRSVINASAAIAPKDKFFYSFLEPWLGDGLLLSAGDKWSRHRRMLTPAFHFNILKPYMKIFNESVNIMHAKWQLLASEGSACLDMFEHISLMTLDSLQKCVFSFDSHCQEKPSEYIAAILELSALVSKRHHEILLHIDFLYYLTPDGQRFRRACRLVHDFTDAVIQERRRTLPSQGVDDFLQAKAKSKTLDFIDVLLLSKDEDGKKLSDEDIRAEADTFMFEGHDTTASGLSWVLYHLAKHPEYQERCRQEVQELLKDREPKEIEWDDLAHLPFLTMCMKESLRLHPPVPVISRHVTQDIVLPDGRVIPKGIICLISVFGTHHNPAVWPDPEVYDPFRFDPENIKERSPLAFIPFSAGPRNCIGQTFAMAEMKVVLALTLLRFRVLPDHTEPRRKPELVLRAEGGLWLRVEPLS
The data set is described as follows: Inhibition of 20-HETE formation at 250 or 500 nM in rCYP4F2 incubations. Conditions: 500 nM compound; rCYP4F2 25 pmol/mL; read-out: rCYP4F2 % inh. @ 500 nM. It is filed as biochemical. An outline of the steps: as §1

The subject of data set [8] is formation of EETs and DiHETs (epoxygenase activity) in HLM. The data set can be described thus: Selectivity: inhibition of EETs and DiHETs formation (epoxygenase activity) in HLM. It is filed as biochemical, human. As for the experimental part: Selectivity of compounds for inhibition of 20-HETE formation vs inhibition of formation of 8,9-, 11,12-, 14,15-EET and 5,6-, 8,9-, 11,12-, 14,15-DiHETs was assessed via the simultaneous monitor of formation of 20-HETE and those metabolites under the UPLC-MS/MS assay conditions described above using HLM incubations and the same 12 test compound concentrations (0.1 nM-[…]) used for the IC50 determination experiments. At each of the 12 concentrations, the selectivity of 20-HETE inhibition over the other metabolites was compared. Epoxygenase activity was assessed by the sum of EETs and DiHETEs as percentage of control.

Data set [9] is described as follows: Turbidometric solubility determination. It is filed as physicochemical. Conditions: PBS with 1% DMSO, aqueous buffer, kinetic from dmso stock, room temperature. An outline of the steps: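 Kinetic turbidimetric solubility: DMSO stocks diluted 1:100 into PBS in triplicate to give 0–600 μM in 1% DMSO. Shaken 2 h at room temperature, then OD620 read. Solubility limit taken as the concentration giving a statistically significant absorbance rise above background.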

SMILES strings stand for the structures. pIC50: −log10 of the molar value. Read-outs that look alike come from different tables or passages of the source.

For the compound `COc1ccc(C2CCN(c3cn[nH]c3)CC2)cc1F` [Compound 44, 4-(3-Fluoro-4-methoxyphenyl)-1-(1H-pyrazol-4-yl)piperidine], the pIC50 (usually the IC50 on a negative log10 scale, so that one unit is a factor of ten) in data set [1] is 6.47. For the same compound, the “HLM % inh. @ 500 nM” value in [2] was 85.00%. Further, in data set [3], the IC50 – broadly, the concentration at which inhibition is half-maximal – is 0.05 µM. Besides, the “RKM % inh. @ 500 nM” value in data set [4] worked out at 21.00%. The “RLM % inh. @ 500 nM” value in data set [5] is recorded as 42.00%. Further, the “Stability HLM % @ 30 min” value in data set [6] came to 100%. In addition, the inhibition at 0.5 µM in [7] was 86%.

For the compound `COc1cccc(C2CCN(c3ccn[nH]3)CC2)c1` [Compound 7, 4-(3-Methoxyphenyl)-1-(1H-pyrazol-5-yl)piperidine], in data set [8] (at 50,000 (nM per column head)), the “EETs Inhibition, % @ 50,000” value was 2.6% @ 50,000. Also, the “HLM % inh. @ 500 nM” value in data set [2] is 51.70%. The same compound had an IC50 in [3] of 0.19 µM. Moreover, the “RKM % inh. @ 500 nM” value in data set [4] is 0.00%. The “RLM % inh. @ 500 nM” value in [5] amounted to 42.30%. The inhibition at 0.5 µM in [7] came out at 6.5%. Also, the solubility at 2 h in data set [9] (OD620, read-out: Max Solub) worked out at 494 µM; in [9] (read-out: Solubility_ug/mL), 127 µg/mL.

In data set [8] (sum of EETs and DiHETs), `c1ccc(CC2CCN(c3ccn[nH]3)CC2)cc1` [Compound 2, 4-Benzyl-1-(1H-pyrazol-5-yl)piperidine] showed a pIC50 of under 4.30. Besides, in [2], the “HLM % inh. @ 500 nM” value turned out to be 59.90%. Further, the IC50 in [3] is 0.15 µM. For the same compound, the “RKM % inh. @ 500 nM” value in data set [4] is recorded as 0.00%. In data set [5], the “RLM % inh. @ 500 nM” value was determined as 0.00%. Further, the “Stability HLM % @ 30 min” value in [6] is reported as 61%. The inhibition at 0.5 µM in data set [7] is 47.6%.
